From patent US20240148821A1, “PHARMACEUTICAL USE OF CYCLIC PEPTIDE COMPOUND” (CHUGAI SEIYAKU KABUSHIKI KAISHA, priority 2021, published 2024)
Numbered stars: 1 amine (or outer) side, 2 acyl side, 3 side chain; on linkers, the order of the positions; unused ones are H or OH. Bridge positions count the residues as written; N and C are the ends. Square brackets hold non-standard residues; d marks the D form. Peptide text beside a SMILES is read from it. * marks the point of attachment. hPhe(3,5-F2-4-CF3) = N[C@@H](CCc1cc(F)c(C(F)(F)F)c(F)c1)C(=O)O; hPhe(3-Cl-4-CF3) = N[C@@H](CCc1ccc(C(F)(F)F)c(Cl)c1)C(=O)O; hPhe(3-F,4-CF3) = N[C@@H](CCc1ccc(C(F)(F)F)c(F)c1)C(=O)O; NMePhe(4-CF3) = CN[C@@H](Cc1ccc(C(F)(F)F)cc1)C(=O)O; X52 = CN([C@@H](Cc1ccccc1OC(F)(F)F)C(=O)[*:2])[*:1]; NMePhe(4-Cl) = CN[C@@H](Cc1ccc(Cl)cc1)C(=O)O; X59 = Cc1ccc(Br)cc1C[C@H](N[*:1])C(=O)[*:2]; NMeGly(cPent) = CN[C@H](C(=O)O)C1CCCC1; Phe(3-I) = N[C@@H](Cc1cccc(I)c1)C(=O)O; Pro(4,4-F2) = O=C(O)[C@@H]1CC(F)(F)CN1; NMeY = CN[C@@H](Cc1ccc(O)cc1)C(=O)O; NMeCha = CN[C@@H](CC1CCCCC1)C(=O)O; Cha = N[C@@H](CC1CCCCC1)C(=O)O; NMeD = CN[C@@H](CC(=O)O)C(=O)O; NMeL = CN[C@@H](CC(C)C)C(=O)O; NMePra = C#CC[C@H](NC)C(=O)O; NMeV = CN[C@H](C(=O)O)C(C)C; d(β3hA) = C[C@@H](N)CC(=O)O; NMeAbu = CC[C@H](NC)C(=O)O; NMeS = CN[C@@H](CO)C(=O)O; NMeA = CN[C@@H](C)C(=O)O; NMeAib = CNC(C)(C)C(=O)O; Nle = CCCC[C@H](N)C(=O)O; Piperidide = C1CCN(*)CC1; Pra = C#CC[C@H](N)C(=O)O; Pyrrolidide = C1CCN(*)C1; Ac5c = NC1(C(=O)O)CCCC1; Aze = O=C(O)[C@@H]1CCN1; Sar = CNCC(=O)O; Propyl = CCC*

The molecules below were run on Human pancreatic cancer cell line AsPC-1 (G12D mutation Kras) (assay: AsPC-1 cell growth inhibition (AsPC-1 CGI)). Conditions: read-out: AsPC-1 cell growth inhibition, 50% growth inhibitory concentration (IC50 value); 96 hours, CellTiter-Glo, values classified in ranges.
Format: cell-based
Description: Test compounds were serially dilated with dimethyl sulfoxide, and 200 nL was then dispensed to a U-bottom 96-well plate using Labcyte Echo. […] The cell suspension was dispensed to a. plate containing a test compound at 100 μL per well and incubated at 37° C. in a 5% carbon dioxide gas incubator. 96 hours later, 80 μL of CellTiter-Glo (Promega) was added to each well and fluorescence was measured.

| Compound | IC50 |
| --- | --- |
| CC[C@H](C)[C@@H]1NC(=O)[C@H](C)N(C)C(=O)C[C@@H](C(=O)N2CCCCC2)N(C)C(=O)[C@H](C(C)C)N(C)C(=O)C2(CCCC2)NC(=O)[C@@H]2CCCN2C(=O)[C@H](CCc2ccc(C(F)(F)F)c(Cl)c2)NC(=O)CN(C)C(=O)[C@H](CC2CCCCC2)N(C)C(=O)[C@@H]2CCCN2C(=O)CN(C)C1=O [Compound 1121] ([NMeA]I[Sar]P[NMeCha][Sar][hPhe(3-Cl-4-CF3)]P[Ac5c][NMeV][NMeD]-Piperidide; lactam N-11) | > 0.5 µM |
| CC(C)C[C@H]1C(=O)N[C@@H](CC2CCCCC2)C(=O)N(C)CC(=O)N(C)CC(=O)N(C)[C@@H](CC2CCCCC2)C(=O)N(C)CC(=O)N[C@@H](CCc2ccc(C(F)(F)F)c(Cl)c2)C(=O)N2CCC[C@H]2C(=O)NC2(CCCC2)C(=O)N(C)[C@@H](C(C)C)C(=O)N(C)[C@H](C(=O)N2CCCCC2)CC(=O)N1C [Compound 986] ([NMeL][Cha][Sar][Sar][NMeCha][Sar][hPhe(3-Cl-4-CF3)]P[Ac5c][NMeV][NMeD]-Piperidide; lactam N-11) | > 0.5 µM |
| C#CC[C@H]1C(=O)N(C)[C@H](C(=O)N2CCCCC2)CC(=O)N(C)[C@@H](CC(C)C)C(=O)N[C@@H]([C@@H](C)CC)C(=O)N(C)CC(=O)N(C)CC(=O)N(C)[C@@H](CC2CCCCC2)C(=O)N(C)CC(=O)N[C@@H](CCc2ccc(C(F)(F)F)c(Cl)c2)C(=O)N2CCC[C@H]2C(=O)NC2(CCCC2)C(=O)N1C [Compound 284] ([NMeL]I[Sar][Sar][NMeCha][Sar][hPhe(3-Cl-4-CF3)]P[Ac5c][NMePra][NMeD]-Piperidide; lactam N-11) | > 0.5 µM |
| C#CC[C@@H]1NC(=O)[C@H](CC(C)C)N(C)C(=O)C[C@@H](C)NC(=O)[C@H](CC(C)C)N(C)C(=O)C2(CCCC2)NC(=O)[C@@H]2CCCN2C(=O)[C@H](CCc2ccc(C(F)(F)F)c(F)c2)NC(=O)CN(C)C(=O)[C@H](CC2CCCCC2)N(C)C(=O)CN(C)C(=O)CN(C)C1=O [Compound 1533] (cyclo([Ac5c][NMeL][d(β3hA)][NMeL][Pra][Sar][Sar][NMeCha][Sar][hPhe(3-F,4-CF3)]P)) | > 0.5 µM |
| CCCC[C@@H]1NC(=O)[C@H](Cc2cccc(I)c2)NC(=O)CN(C)C(=O)[C@H](Cc2ccc(Cl)cc2)N(C)C(=O)CN(C)C(=O)CN(C)C(=O)[C@H]([C@@H](C)CC)NC(=O)[C@H](CC(C)C)N(C)C(=O)C[C@@H](C(=O)N2CCCCC2)N(C)C(=O)[C@H](CC(C)C)NC(=O)[C@H](Cc2ccccc2OC(F)(F)F)N(C)C1=O [Compound 111] ([NMeL]I[Sar][Sar][NMePhe(4-Cl)][Sar][Phe(3-I)][Nle][X52]L[NMeD]-Piperidide; lactam N-11) | > 0.5 µM |
| CC[C@H](C)[C@@H]1NC(=O)[C@H](CC(C)C)N(C)C(=O)C[C@@H](C(=O)N2CCCC2)N(C)C(=O)[C@H](C2CCCC2)N(C)C(=O)C2(CCCC2)NC(=O)[C@@H]2CC(F)(F)CN2C(=O)[C@H](CCc2cc(F)c(C(F)(F)F)c(F)c2)NC(=O)CN(C)C(=O)[C@H](CC2CCCCC2)N(C)C(=O)CN(C)C(=O)CN(C)C1=O [Compound 1166] ([NMeL]I[Sar][Sar][NMeCha][Sar][hPhe(3,5-F2-4-CF3)][Pro(4,4-F2)][Ac5c][NMeGly(cPent)][NMeD]-Pyrrolidide; lactam N-11) | ≤ 0.02 µM |
| CCCC[C@@H]1NC(=O)[C@H](Cc2cc(Br)ccc2C)NC(=O)CN(C)C(=O)[C@H](Cc2ccc(OC)cc2)N(C)C(=O)[C@@H]2CCN2C(=O)[C@H](C)N(C)C(=O)[C@H]([C@@H](C)CC)NC(=O)[C@H](CC)N(C)C(=O)C[C@@H](C(=O)N2CCCCC2)N(C)C(=O)[C@H](CC(C)C)NC(=O)C(C)(C)N(C)C1=O [Compound 1195] ([NMeAbu]I[NMeA][Aze][NMeY](Me)[Sar][X59][Nle][NMeAib]L[NMeD]-Piperidide; lactam N-11) | > 0.5 µM |
| CCCOC[C@H]1C(=O)N(C)[C@H](C(=O)N2CCCCC2)CC(=O)N(C)[C@@H](CC(C)C)C(=O)N[C@@H]([C@@H](C)CC)C(=O)N(C)[C@@H](C)C(=O)N2CC[C@H]2C(=O)N(C)[C@@H](CC2CCCCC2)C(=O)N(C)CC(=O)N[C@@H](CCc2ccc(C(F)(F)F)c(Cl)c2)C(=O)N2CCC[C@H]2C(=O)NC2(CCCC2)C(=O)N1C [Compound 1855] ([NMeL]I[NMeA][Aze][NMeCha][Sar][hPhe(3-Cl-4-CF3)]P[Ac5c][NMeS](Propyl)[NMeD]-Piperidide; lactam N-11) | > 0.5 µM |
| C#CC[C@@H]1NC(=O)[C@H](Cc2cccc(I)c2)NC(=O)CN(C)C(=O)[C@H](Cc2ccc(C(F)(F)F)cc2)N(C)C(=O)[C@@H]2CCN2C(=O)CN(C)C(=O)[C@H]([C@@H](C)CC)NC(=O)[C@H](CC(C)C)N(C)C(=O)C[C@@H](C(=O)N2CCCCC2)N(C)C(=O)[C@H](CC(C)C)NC(=O)C(C)(C)N(C)C1=O [Compound 1425] ([NMeL]I[Sar][Aze][NMePhe(4-CF3)][Sar][Phe(3-I)][Pra][NMeAib]L[NMeD]-Piperidide; lactam N-11) | > 0.5 µM |
